# Results reported in patent US12404526B2, “Enhancing agents for improved cell transfection and/or rAAV vector production” (priority 2017, dated 2025).
# Test system: HEK 293F cells
# Assay: rAAV-FVIII vector production by PEI-transfected HEK 293F cells with enhancing agents, vector genome titer by Q-PCR
# Assay type: cell-based, human
# Procedure: Cell Culture: FreeStyle™ 293F (HEK 293F) cells purchased from Thermo Fisher Scientific (R79007) were cultured in FreeStyle™ F17 (F17) expression medium (Thermo Fisher Scientific, A1383501) supplemented with 1× GlutaMAX™ (Thermo Fisher Scientific, 35050-061) and 1× Antibiotic-antimycotic (Thermo Fisher Scientific, 15240). Cells were cultured in spinner flasks (Corning, 3152 or 3153), shake flask (Corning 431143, or 431145) or bioreactors. For spinner/shake flask, cells were cultured at 37° C. incubator with 170 rpm agitation and a humidified atmosphere of 8% CO2; for bioreactors (Eppendorf, DASGIP Parallel Bioreactor system, glass vessels and single use vessels), cell culture was controlled by programed parameters, (DO 40%, pH 7.2, agitation at 130 rpm, 150 rpm or 170 rpm). Typically, cells were seeded at 0.25-0.5×10^6/mL, subcultured every 2-3 days by adding fresh cell culture medium when cell density reached approximately 2-3×10^6/mL. Cell density and viability were determined using a Vi-cell™ XR cell viability Analyzer (Beckman Coulter).
# Plasmids: Three plasmids were used to produce recombinant adeno-associated viral vectors (rAAV): 1) Transgene plasmid containing hFVIII flanked by ITRs, 2) A packaging plasmid containing rep and cap genes, 3) An adenoviral helper plasmid containing adenovirus E2, E4 and VARNA genes. All plasmids were purchased from and manufactured by Aldevron.
# Preparation of PEI solutions: Linear polyethylenimine (PEI) “Max” 40 KDa (Polysciences, 24765-2, hydrochloride salt of the linear PEI 25 KDa) was used as transfection reagent. For transfection optimization studies, PEI “Max” was dissolved in 5 mM Tris to make a 0.5 mg/mL solution and the solution was adjusted to different pH, including pH7.0, 7.1, 7.2, 7.3, 7.4, 7.6, 7.8, or 8.0. After several studies, PEI solution at pH 7.1 was selected for all studies if not specified because of the best transfection and rAAV production.
# Using enhancing agents in PEI-mediated transfection: The potential transfection enhancing agents evaluated for their effect on transfection and rAAV production were enhancer 1 and 2 in ExpiFectamine™ 293 Transfection Kit (Thermo Fisher Scientific, A14525), P3000 reagent in Lipofectamine® 3000 Transfection Kit (Thermo Fisher Scientific, L3000015), enhancer in Effectene™ Transfection Reagent Kit (Qiagen, 301427). Also studied were a variety of compounds including valproic acid, etoposide, teniposide, siomycin A and vorinostat to test their effectiveness on PEI cell transfection and rAAV production.
# HEK 293F cells were grown in F17 medium plus 1× GlutaMAX™ Supplement and 1× Antibiotic-antimycotic in spinner flasks or shake flasks. The day before transfection, cells were seeded at 0.5-2×10^6 cells/mL by adding fresh medium. After 24 hr, cells were transfected at a cell density of 1-4×10^6 cells/mL. Three plasmids for transfection, hFVIII, Rep/cap, Ad2 helper, were used at a molar ratio of 1:1:1, 0.5:1:1 and 1:2:2, and at weight ratio of 0.75:0.75:0.75, 1:1:1 and 1.5:1.5:1.5. The total DNA amount used for transfection was from 0.5 to 4.2 μg per mL of cell culture volume. PEI/DNA complex was prepared with different weight ratios of PEI and DNA, at 1:1, 1.5:1, 2:1, 2.5:1 and 3:1, incubated at room temperature for 1, 5, 10, 15, 20, 25 and 30 minutes, then the DNA/PEI complexes were added to the cell culture. Free PEI (without DNA) from 0.5 to 5.6 μg/mL was added to the cell culture immediately after DNA/PEI complexes. Enhancing agents were added directly to the cells at the time of transfection or 24 hr before transfection or 16-18 hr after transfection. Different amounts of enhancing agents were studied. Samples, including cells and cell culture media, were taken at 48 and 72 hr post transfection for cell count and cell viability and cell culture was harvested at 72 hr post transfection. […]
smiles,measurement,setting,value
CCCC(CCC)C(=O)O [valproic acid],"rAAV vector production, fold higher than in the absence of valproic acid","2 mM at transfection, spinner flask, 1.2 μg/mL DNA, PEI/DNA 2:1, 1.5 μg/mL free PEI, FIG. 7",10 fold
same,AAV vector production at increased valproic acid concentrations,"1L bioreactor culture, 4 mM or higher, such as 5-8 mM, FIG. 8",improved
same,"AAV vector production, fold higher compared with 2 mM of valproic acid",">4 mM (up to 8 mM) at transfection, 1 L bioreactor, PEI/DNA 2.5, FIG. 8",1.2-1.8 fold
same,effect on rAAV productivity (compound screen),"added at transfection, PEI-mediated transfection",significantly increased
same,"rAAV-FVIII vector titer, fold increase compared to that without any enhancers","optimized PEI-mediated transfection, serum-free suspension culture, 0.25-10 mM tested, FIG. 7",around 10 fold
same,rAAV productivity level compared with enhancer 1 and 2,"optimized PEI-mediated transfection, serum-free suspension culture, FIG. 7",same rAAV productivity level or higher
same,"rAAV vector productivity, fold higher than the currently reported production protocol using similar technologies",used alone in the optimized PEI-based transfection method,about 10 fold
